Among the data in patent US20240245647A1, “ISOMEROHYDROLASE INHIBITOR FOR TREATMENT OF ATROPHIC FORM OF AGE-RELATED MACULAR DEGENERATION AND STARGARDT DISEASE” (The Trustees of Columbia University in the City of New York, priority 2021, published 2024) are solubility values, retold here.

≈ marks a conversion by molar mass, not a printed value.

The solubility is how much of the substance goes into solution per volume. Low readings indicate little dissolved substance, high ones much dissolved substance.

A short description of the data set: Thermodynamic aqueous solubility, shake-flask. The settings on record: PBS pH 7.4, 24 h, 25° C., assay standards. It counts as physicochemical. An excerpt:
In addition, chromatographic purity (%) was defined as the peak area of the principal peak relative to the total integrated peak area in the HPLC chromatogram of the calibration standard. A chromatogram of the calibration standard of each test compound, along with a UV/VIS spectrum with labeled absorbance maxima, was generated.

Setting [1] is: PBS (shake-flask), aqueous buffer, thermodynamic from solid.

In turn, `CC/C(=C(/CC)c1ccc(O)cc1)c1ccc(O)cc1` [Diethylstilbesterol] displayed a solubility at 24 h of 7.0 µM (≈ 1.88 µg/mL).
For `CC(=O)N1CCN(c2ccc(OCC3COC(Cn4ccnc4)(c4ccc(Cl)cc4Cl)O3)cc2)CC1` (centres unmarked) [Ketoconazole], the solubility at 24 h under setting [1] was 153 µM (≈ 81.2 µg/mL).
Still for that read-out and setting: the result for `COCCc1ccc(OCC(O)CNC(C)C)cc1` (centres unmarked) [Metoprolol] reads 193 µM (≈ 51.5 µg/mL); that for `CO[C@H]1/C=C/O[C@@]2(C)Oc3c(C)c(O)c4c(O)c(c(/C=N/N5CCN(C)CC5)c(O)c4c3C2=O)NC(=O)/C(C)=C\C=C\[C@H](C)[C@H](O)[C@@H](C)[C@@H](O)[C@@H](C)[C@H](OC(C)=O)[C@@H]1C` [Rifampicin], 200 µM (≈ 165 µg/mL); that for `O=C1NC(=O)C(c2ccccc2)(c2ccccc2)N1` [Phenytoin], 102 µM (≈ 25.7 µg/mL).
